{"source": "BigSolDB 2.1", "data": [{"smiles": "c1ccc(-n2c(-c3cc(-c4nc5ccccc5n4-c4ccccc4)cc(-c4nc5ccccc5n4-c4ccccc4)c3)nc3ccccc32)cc1", "values": [{"measurement": "solubility (mole fraction)", "setting": "in DMSO, 293.15 K", "value": 0.00119}, {"measurement": "solubility (mole fraction)", "setting": "in DMSO, 303.15 K", "value": 0.00151}, {"measurement": "solubility (mole fraction)", "setting": "in DMSO, 313.15 K", "value": 0.0023}, {"measurement": "solubility (mole fraction)", "setting": "in DMSO, 323.15 K", "value": 0.0032}, {"measurement": "solubility (mole fraction)", "setting": "in THF, 283.15 K", "value": 0.00159}, {"measurement": "solubility (mole fraction)", "setting": "in THF, 293.15 K", "value": 0.00202}, {"measurement": "solubility (mole fraction)", "setting": "in THF, 303.15 K", "value": 0.00277}, {"measurement": "solubility (mole fraction)", "setting": "in THF, 313.15 K", "value": 0.0042}, {"measurement": "solubility (mole fraction)", "setting": "in THF, 323.15 K", "value": 0.00451}, {"measurement": "solubility (mole fraction)", "setting": "in acetonitrile, 283.15 K", "value": 0.000114}, {"measurement": "solubility (mole fraction)", "setting": "in acetonitrile, 293.15 K", "value": 0.000135}, {"measurement": "solubility (mole fraction)", "setting": "in acetonitrile, 303.15 K", "value": 0.000149}, {"measurement": "solubility (mole fraction)", "setting": "in acetonitrile, 313.15 K", "value": 0.000188}, {"measurement": "solubility (mole fraction)", "setting": "in acetonitrile, 323.15 K", "value": 0.000232}, {"measurement": "solubility (mole fraction)", "setting": "in chlorobenzene, 283.15 K", "value": 0.00588}, {"measurement": "solubility (mole fraction)", "setting": "in chlorobenzene, 293.15 K", "value": 0.00711}, {"measurement": "solubility (mole fraction)", "setting": "in chlorobenzene, 303.15 K", "value": 0.00857}, {"measurement": "solubility (mole fraction)", "setting": "in chlorobenzene, 313.15 K", "value": 0.00941}, {"measurement": "solubility (mole fraction)", "setting": "in chlorobenzene, 323.15 K", "value": 0.0111}, {"measurement": "solubility (mole fraction)", "setting": "in chloroform, 283.15 K", "value": 0.00762}, {"measurement": "solubility (mole fraction)", "setting": "in chloroform, 293.15 K", "value": 0.00839}, {"measurement": "solubility (mole fraction)", "setting": "in chloroform, 303.15 K", "value": 0.0092}, {"measurement": "solubility (mole fraction)", "setting": "in chloroform, 313.15 K", "value": 0.01}, {"measurement": "solubility (mole fraction)", "setting": "in chloroform, 323.15 K", "value": 0.0113}, {"measurement": "solubility (mole fraction)", "setting": "in cyclohexane, 283.15 K", "value": "2e-07"}, {"measurement": "solubility (mole fraction)", "setting": "in cyclohexane, 293.15 K", "value": "4e-07"}, {"measurement": "solubility (mole fraction)", "setting": "in cyclohexane, 303.15 K", "value": "6e-07"}, {"measurement": "solubility (mole fraction)", "setting": "in cyclohexane, 313.15 K", "value": "1.1e-06"}, {"measurement": "solubility (mole fraction)", "setting": "in cyclohexane, 323.15 K", "value": "1.9e-06"}, {"measurement": "solubility (mole fraction)", "setting": "in ethanol, 283.15 K", "value": 0.000357}, {"measurement": "solubility (mole fraction)", "setting": "in ethanol, 293.15 K", "value": 0.000437}, {"measurement": "solubility (mole fraction)", "setting": "in ethanol, 303.15 K", "value": 0.000542}, {"measurement": "solubility (mole fraction)", "setting": "in ethanol, 313.15 K", "value": 0.000716}, {"measurement": "solubility (mole fraction)", "setting": "in ethanol, 323.15 K", "value": 0.000932}, {"measurement": "solubility (mole fraction)", "setting": "in ethyl acetate, 283.15 K", "value": 0.000711}, {"measurement": "solubility (mole fraction)", "setting": "in ethyl acetate, 293.15 K", "value": 0.000777}, {"measurement": "solubility (mole fraction)", "setting": "in ethyl acetate, 303.15 K", "value": 0.000921}, {"measurement": "solubility (mole fraction)", "setting": "in ethyl acetate, 313.15 K", "value": 0.0012}, {"measurement": "solubility (mole fraction)", "setting": "in ethyl acetate, 323.15 K", "value": 0.00174}, {"measurement": "solubility (mole fraction)", "setting": "in isopropanol, 283.15 K", "value": "1.11e-05"}, {"measurement": "solubility (mole fraction)", "setting": "in isopropanol, 293.15 K", "value": "2.18e-05"}, {"measurement": "solubility (mole fraction)", "setting": "in isopropanol, 303.15 K", "value": "3.04e-05"}, {"measurement": "solubility (mole fraction)", "setting": "in isopropanol, 313.15 K", "value": "4.51e-05"}, {"measurement": "solubility (mole fraction)", "setting": "in isopropanol, 323.15 K", "value": "6.88e-05"}, {"measurement": "solubility (mole fraction)", "setting": "in methanol, 283.15 K", "value": 0.000236}, {"measurement": "solubility (mole fraction)", "setting": "in methanol, 293.15 K", "value": 0.000259}, {"measurement": "solubility (mole fraction)", "setting": "in methanol, 303.15 K", "value": 0.00029}, {"measurement": "solubility (mole fraction)", "setting": "in methanol, 313.15 K", "value": 0.000307}, {"measurement": "solubility (mole fraction)", "setting": "in methanol, 323.15 K", "value": 0.000361}, {"measurement": "solubility (mole fraction)", "setting": "in n-butanol, 283.15 K", "value": 0.00117}, {"measurement": "solubility (mole fraction)", "setting": "in n-butanol, 293.15 K", "value": 0.00132}, {"measurement": "solubility (mole fraction)", "setting": "in n-butanol, 303.15 K", "value": 0.00155}, {"measurement": "solubility (mole fraction)", "setting": "in n-butanol, 313.15 K", "value": 0.00167}, {"measurement": "solubility (mole fraction)", "setting": "in n-butanol, 323.15 K", "value": 0.00192}, {"measurement": "solubility (mole fraction)", "setting": "in n-hexane, 283.15 K", "value": "3.9e-06"}, {"measurement": "solubility (mole fraction)", "setting": "in n-hexane, 293.15 K", "value": "5.8e-06"}, {"measurement": "solubility (mole fraction)", "setting": "in n-hexane, 303.15 K", "value": "9.5e-06"}, {"measurement": "solubility (mole fraction)", "setting": "in n-hexane, 313.15 K", "value": "1.46e-05"}, {"measurement": "solubility (mole fraction)", "setting": "in n-hexane, 323.15 K", "value": "2.22e-05"}]}]}
